Laboratory results as given in patent US7875638B2, “Synthesis of epothilones, intermediates thereto, analogues and uses thereof” (Sloan-Kettering Institute for Cancer Research, priority 2002, dated 2011).
Where “and” joins values, the source holds several entries; their conditions need not be identical. Equal values may be shown once. Entries after “also recorded” stand apart in the source; their conditions may differ. Read-outs that look alike come from different tables or passages of the source.

Key:
HCT-116 = assay: XTT cell growth inhibition, HCT-116; format: cell-based; details: Homo sapiens
Ovcar-3 = assay: XTT cell growth inhibition, Ovcar-3; format: cell-based; details: Homo sapiens
[1] = tested on: human lung carcinoma xenograft (A549); assay: A549 xenograft in nude mice; details: for Tumor eradication: 29: after two more doses, dEpoB: 30 mg/kg, Q2Dx6
[2] = tested on: RPMI8226 myeloma cell line; assay: Annexin V staining, RPMI8226; format: cell-based, human; details: 24 hours treatment
Source text: In early apoptotic cells, the membrance phospholipids phosphatidylserine (PS) is translocated from the inner to the outer leaflet of the plasma membrane, thereby exposing PS to the external cellular environment. Annexin V is a 35-36 kD Ca^+2 dependent phospholipid-binding protein that has a high affinity for PS, and binds to cells with exposed PS. In conjunction with a vital dye such as 7-amino-actinomycin (7-AAD) staining dead cells, this assay allows the identification of early apoptotic cells.

HS-27A = assay: XTT cell growth inhibition, HS-27A; format: cell-based; details: Homo sapiens, read-out: IC50 (nM), HS-27A
MDA MB435 = assay: XTT cell growth inhibition, MDA MB435; format: cell-based; details: Homo sapiens
HT-29 = assay: XTT cell growth inhibition, HT-29; format: cell-based; details: Homo sapiens
H929 = assay: XTT cell growth inhibition, H929; format: cell-based; details: Homo sapiens
CCRF-CEM/Taxol = format: cell-based, human; details: Homo sapiens, CCRF-CEM
Human CD34+ stem cells = assay: Apoptosis and 2 weeks progenitor assays on CD34+ stem cells; format: cell-based; details: 24 hours incubation, umbilical cord blood CD34+
Procedure: Then drugs were washed out and annexin V staining was performed. Solid area represents vehicle control and open area represents drug treated group. There is no obvious increased apoptosis of non-cycling human CD34+ cells with short period of exposure to epothilones.
Drug cytotoxicity to hematopoietic stem cells is always a major concern. Human CD34+ stem cells were isolated from umbilical cord blood and incubated with either dEpoB or Fludelone alone for 24 hours. After washing out the drugs, apoptosis assays and 2 weeks progenitor assays were performed to evaluate the influence of epothilone to stem cells.

CAG myeloma cells = assay: Disseminated CAG xenograft myeloma mice; details: 20 mg/kg; for Survival versus controls: intraperitoneal
Procedure: 10×10^6 CAG myeloma cells engineered with Luc-eGFP-TK fusion gene were injected intravenously into the mouse-tail vein, and the treatment was started when decent myeloma cells implantation was detected by bioluminescence imaging on day 7.

[3] = tested on: Human marrow stromal cell lines, HS-27A and HS-5; assay: XTT cell proliferation, normal stromal cells; details: read-out: IC50, stromal lines HS-27A and HS-5
Source text: Human marrow stromal cell lines, HS-27A and HS-5 immortalized by E6/E7 genes, have normal marrow stromal function, which support stem cell self-renewal, and proliferation.

SKOV3 = assay: XTT cell growth inhibition, SKOV3; format: cell-based; details: Homo sapiens
RPMI8226 = assay: XTT cell growth inhibition, RPMI8226; format: cell-based; details: Homo sapiens
[4] = tested on: myeloma cell lines (RPMI8226, CAG); assay: XTT cell proliferation, myeloma cell lines; format: cell-based, human; details: for IC50: Homo sapiens, RPMI-8226, read-out: IC50, myeloma cell lines (RPMI8226, CAG)
Ovcar-4 = assay: XTT cell growth inhibition, Ovcar-4; format: cell-based; details: Homo sapiens
OPM-2 myeloma cells = assay: Cell cycle analysis (propidium iodide DNA staining), OPM-2; format: cell-based, human
Source text: FIG. 95 is cell cycle analysis as determined by Propidium iodide DNA staining. […] The two drugs induced the same patter of cell cycle arrest.

CAG myeloma cell lines = assay: Cell cycle analysis (propidium iodide DNA staining), CAG; format: cell-based, human; details: 31.25 nM
Source text: CAG myeloma cell lines were used.

MOLP-5 = assay: XTT cell growth inhibition, MOLP-5; format: cell-based; details: Homo sapiens, read-out: IC50 (nM), MOLP-5
Ovarian cancer lines = assay: XTT cell growth inhibition, ovarian cancer lines (mean); format: cell-based; details: Homo sapiens, read-out: Mean IC50, ovarian lines
primary CD138 MM cells = assay: Apoptosis of primary myeloma cells; format: cell-based, human; details: cells obtained from patient marrow
HS-5 = assay: XTT cell growth inhibition, HS-5; format: cell-based; details: Homo sapiens
CAG = assay: XTT cell growth inhibition, CAG; format: cell-based; details: Homo sapiens, read-out: IC50 (nM), CAG
in vitro = details: mouse, plasma
Procedure: Stability of epothilones in mouse and in human liver S9 fraction. The stability study was carried out with a fully automated HPLC system which consisted of a Prospekt-2 (Spark Holland, Netherlands) sample preparation system and an Agilent 1100 HPLC system. Briefly, the Prospekt 2 picked up a C8 extraction cartridge and washed it with acetonitrile and water. The Agilent autosampler, set at 37° C., picked up 20 μl of the sample, loaded it onto the cartridge, washed it with water, then the Prospekt-2 diverted the mobile phase stream through the extraction cartridge onto the analytical column, Reliance Stable Bond C8 4×80 mm with guard column (MacMod, Chadds Ford, Pa.) and the eluent was monitored at 250 nm. […] Sample preparation involved the addition of equal volumes of plasma to PBS for a total volume of 300-400 μl, filtered, and the addition of 0.5-2 μl of the substrate (20 mM) to achieve about 30-50 mAU at 250 nm in the HPLC analysis. For pooled human liver microsome S9 fraction (Xeno Tech, Lenex, Kans.), 20 μl (400 μg) or S9 fraction was mixed with 280 μl of PBS then proceeded as above. The sampling period was controlled by the autosampler and peak area data were collected to compare the rate of disappearance of the parent compound.
Stability of epothilones in mouse and in human liver S9 fraction: The stability study was carried out with a fully automated HPLC system which consisted of a Prospekt-2 (Spark Holland, Netherlands) sample preparation system and an Agilent 1100 HPLC system. Briefly, the Prospekt 2 picked up a C8 extraction cartridge and washed it with acetonitrile and water. The Agilent autosampler, set at 37° C., picked up 20 μl of the sample, loaded it onto the cartridge, washed it with water, then the Prospekt-2 diverted the mobile phase stream through the extraction cartridge onto the analytical column, Reliance Stable Bond C8 4×80 mm with guard column (MacMod, Chadds Ford, Pa.) and the eluent was monitored at 250 nm. […] Sample preparation involves the addition of equal volumes of plasma to PBS for a total volume of 400 μl, filtered, and the addition of 0.5-2 μl of the substrate (20 mM) to achieve about 30-50 mAU at 250 nm in the HPLC analysis. For pooled human liver microsome S9 fraction (Xeno Tech, Lenex, Kans.), 20 μl (400 μg) or S9 fraction was mixed with 280 μl of PBS then proceeds as above. The sampling period was controlled by the autosampler and peak area data were collected to compare the rate of disappearance of the parent compound.

[5] = tested on: human colon carcinoma HCT-116 xenograft; assay: HCT-116 xenograft in nude mice; details: for Tumor relapse during follow-up to D200: Fludelone 20 and 30 mg/kg; for Tumor free following the cessation of treatment: mouse, in vivo
[6] = tested on: paclitaxel resistant human lung carcinoma A549/Taxol xenograft; assay: A549/Taxol xenograft in nude mice
[7] = tested on: human T-cell lymphoblastic leukemia CCRF-CEM/Taxol xenograft; assay: CCRF-CEM/Taxol xenograft in nude mice; format: in vivo
[8] = tested on: lymphoma lines (SKIDLBCL and RL); assay: XTT cell proliferation, lymphoma lines; format: cell-based, human
[9] = read-out: IC50 (μM), CCRF-CEM, XTT assay following 72 h inhibition, Table 1-2
[10] = read-out: IC50, CCRF-CEM(C), XTT assay following 72 h inhibition, Table 1-3

C/C1=C/CC(/C(C)=C/c2csc(C)n2)OC(=O)C[C@H](O)C(C)(C)C(=O)[C@H](C)[C@@H](O)[C@@H](C)CCC1 (some centres unmarked) [Compound 1, 12,13-desoxyepothilone B, reference compound]
IC50 (HCT-116; HCT-116, read-out: IC50 (nM), HCT-116): 7.5 ± 3.1 nM | IC50 (Ovcar-3; OVCAR-3, read-out: IC50 (nM), Ovcar-3): 14 ± 3.6 nM | Tumor eradication [1]: no tumor eradication | Apoptosis (Annexin V / 7-AAD) [2]: majority of cell either enter apoptosis or are dead | IC50 (HS-27A): 100 ± 10 nM | IC50 (MDA MB435; MDA-MB-435, read-out: IC50 (nM), MDA MB435): 7.8 ± 4.2 nM | IC50 (HT-29; HT-29, read-out: IC50 (nM), HT-29): 7.2 ± 2.2 nM | IC50 (H929; NCI-H929, read-out: IC50 (nM), H929): 42.8 ± 4.5 nM | IC50 (CCRF-CEM/Taxol; 72 h, read-out: IC50 (μM), CCRF-CEM/Taxol): 0.0057 µM | IC50 (CCRF-CEM/Taxol; 72 h, read-out: IC50, C/Taxol (μM)): 0.0046 µM | IC50 (CCRF-CEM/Taxol; 72 h, read-out: IC50, CCRF-CEM/Taxol): 0.0046 µM | Toxicity on non-cycling stem cells (Human CD34+ stem cells): no significant toxicity | Survival after transplanting CAG cells (Kaplan-Meier) (CAG myeloma cells): ≤ 50 days | Survival versus controls (CAG myeloma cells): no difference in survival | IC50 [3]: 90 to 100 nM | IC50 (SKOV3; SK-OV-3, read-out: IC50 (nM), SKOV3): 13 ± 4.7 nM | IC50 (RPMI8226; RPMI-8226, read-out: IC50 (nM), RPMI8226): 36.7 ± 2 nM | IC50 [4]: 36.7 to 61.3 nM | IC50 (Ovcar-4; OVCAR-4, read-out: IC50 (nM), Ovcar-4): 16 ± 2.5 nM | Cell cycle arrest (OPM-2 myeloma cells): arrested in G2M phase starting from 6 hours and absolutely blocked at 24 hours | Cell cycle arrest (CAG myeloma cell lines): absolutely blocked cell cycle at G2M phase | IC50 (CCRF-CEM; human): 0.0056 ± 0.0028 µM | IC50 (CCRF-CEM; [9]): 0.0036 µM | IC50 (CCRF-CEM; [10]): 0.0036 µM | IC50 (CCRF-CEM; read-out: IC50, CCRF-CEM, XTT assay following 72 h inhibition, Table 1-4): 0.0036 µM | IC50 (MOLP-5): 68.6 ± 5.5 nM | IC50 (Ovarian cancer lines): 16.5 nM | Tumor apoptosis within 24 hrs (primary CD138 MM cells): not | IC50 (HS-5; HS5, read-out: IC50 (nM), HS-5): 100 ± 8 nM | IC50 (CAG): 61.3 ± 4.2 nM

C/C(=C\c1csc(C)n1)[C@@H]1C/C=C(/C(F)(F)F)C/C=C/[C@H](C)[C@H](O)[C@@H](C)C(=O)C(C)(C)[C@@H](O)CC(=O)O1 [Compound 29, 26-trifluoro-trans-9,10-dehydro-12,13-desoxyepothilone B]
IC50 (HCT-116; HCT-116, Colon Ca, XTT tetrazonium assay, read-out: IC50 (nM), HCT-116): 3.6 ± 1.3 nM | IC50 (Ovcar-3; OVCAR-3, Ovarian Ca, XTT tetrazonium assay, read-out: IC50 (nM), Ovcar-3): 1.1 ± 0.4 nM | Body weight decrease without lethality ([1]; 25 mg/kg, Q2DX6, twice): ≤ 35% | Tumor eradication [1]: 4 of the 4 | half-life (in vitro): 3.53 ± 1.47 h | Apoptosis (Annexin V / 7-AAD) [2]: majority of cell either enter apoptosis or are dead | IC50 (HS-27A; Marrow stroma, XTT tetrazonium assay): 102 ± 8 nM | Maximal body weight loss without lethality ([5]; 30 mg/kg, end of the 2nd cycle (D29)): 30% | Tumor relapse during follow-up to D200 ([5]; Taxol 20 mg/kg): no tumor relapse | Tumor relapse during follow-up to D200 ([5]; Taxol 20 mg/kg, listed as F3-deH-dEpoB): no tumor relapse in 4 out of 4 mice on D200 | Tumor disappearance (mice) ([5]; Q2Dx4, 6 hr-i.v. infusion for 3 cycles, F3-deH-dEpoB 20 and 30 mg/kg, Taxol 20 mg/kg): 4 out of 4 | Tumor free following the cessation of treatment ([5]; listed as 26-trifluoro-9,10-trans-dehdyro-epothilone D): over 5.2 months | Tumor free following the cessation of treatment ([5]; listed as Fludelone): over 5.3 months | IC50 (MDA MB435; MDA-MB-435, Breast Ca, XTT tetrazonium assay, read-out: IC50 (nM), MDA MB435): 5.8 ± 2.8 nM | IC50 (HT-29; HT-29, Colon Ca, XTT tetrazonium assay, read-out: IC50 (nM), HT-29): 4 ± 1.7 nM | IC50 (H929; NCI-H929, Myeloma, XTT tetrazonium assay, read-out: IC50 (nM), H929): 9.2 ± 1.9 nM | IC50 (CCRF-CEM/Taxol; XTT assay following 72 h inhibition, Table 1-2, read-out: IC50 (μM), CCRF-CEM/Taxol): 0.0057 µM | IC50 (CCRF-CEM/Taxol; XTT assay following 72 h inhibition, Table 1-3, read-out: IC50, C/Taxol): 0.0057 µM | Toxicity on non-cycling stem cells (Human CD34+ stem cells): no significant toxicity | Survival after transplanting CAG cells (Kaplan-Meier) (CAG myeloma cells): > 80 days | Survival versus controls (CAG myeloma cells): at least doubled the survival time than controls | Tumor burden by bioluminescence imaging (CAG myeloma cells; listed as Fludelone): significant decreased tumor photon emissions; also recorded: significantly decreased tumor burden | IC50 [3]: 90 to 100 nM | IC50 (SKOV3; SK-OV-3, Ovarian Ca, XTT tetrazonium assay, read-out: IC50 (nM), SKOV3): 1.6 ± 0.5 nM | IC50 (RPMI8226; RPMI-8226, Myeloma, XTT tetrazonium assay, read-out: IC50 (nM), RPMI8226): 7.6 ± 1.2 nM | Potency relative to dEpoB on MM cell lines [4]: ~5 fold | IC50 [4]: 7.6 to 36.7 nM | IC50 (Ovcar-4; OVCAR-4, Ovarian Ca, XTT tetrazonium assay, read-out: IC50 (nM), Ovcar-4): 1.8 ± 0.7 nM | Cell cycle arrest (OPM-2 myeloma cells): arrested in G2M phase starting from 6 hours and absolutely blocked at 24 hours | Cell cycle arrest (CAG myeloma cell lines): absolutely blocked cell cycle at G2M phase | Attenuation of cytotoxicity by the three fluorine atoms at C26, factor (CCRF-CEM): ≤ 4 | IC50 (CCRF-CEM; human): 0.0032 ± 0.0003 µM | Cytotoxicity relative to the benchmark compound dEpoB (CCRF-CEM; in the cell): ~1.8 fold | IC50 (CCRF-CEM; [9]): 0.0035 µM | IC50 (CCRF-CEM; [10]): 0.0035 µM | IC50 (MOLP-5; Myeloma, XTT tetrazonium assay): 14.4 ± 2.6 nM | IC50 (Ovarian cancer lines): 1.6 nM | Tumor apoptosis within 24 hrs (primary CD138 MM cells): induced tumor apoptosis within 24 hrs | IC50 (HS-5; HS5, Marrow stroma, XTT tetrazonium assay, read-out: IC50 (nM), HS-5): 96 ± 7 nM | IC50 (CAG; Myeloma, XTT tetrazonium assay): 12 ± 1.8 nM | Body weight recovery upon suspension of drug treatment, % of the pretreatment control ([6]; 20 mg/kg): 90% | Maximal body weight decrease ([6]; 20 mg/kg): 24% | Tumor growth suppression ([6]; 29: 20 mg/kg, 28: 4 mg/kg): totally suppressed | Final tumor suppression on D34 ([7]; 15 mg/kg): 98.8% | Tumor disappearance (mice) ([7]; 15 mg/kg, 6 hr-i.v. infusion, Q2Dx7 then Q2Dx5): 1 out of 4 | Tumor disappearance (mice) ([7]; 15 mg/kg, 6 hr-i.v. infusion, Q2Dx7 then Q2Dx5, listed as 26-F3-9,10-deH-dEpo B): 1/3 | Tumor disappearance (mice) ([7]; 15 mg/kg, 6 hr-i.v. infusion, Q2Dx7 then Q2Dx5, listed as Fludelone): 1/3 | Tumor disappearance (mice) ([7]; 30 mg/kg Q2Dx7, 6 hr-i.v. infusion (first cycle)): 2 out of 4 | Tumor disappearance (mice) ([7]; 30 mg/kg, 6 hr-i.v. infusion, Q2Dx7 then Q2Dx5, listed as 26-F3-9,10-deH-dEpo B): ¾ | Tumor disappearance (mice) ([7]; 30 mg/kg, 6 hr-i.v. infusion, Q2Dx7 then Q2Dx5, listed as Fludelone): 3 out of 4 and 3/4 | Final tumor suppression ([7]; 30 mg/kg, Q2Dx7 then Q2Dx5): 99.8% | Inhibitory doses in two NHL lines relative to doses effective in MM [8]: 5-10 fold | IC50 ([8]; Homo sapiens, XTT): 60 to 80 nM
